Data taken from paper PMC8910697, “Development of VPC-70619, a Small-Molecule N-Myc Inhibitor as a Potential Therapy for Neuroendocrine Prostate Cancer” (International Journal of Molecular Sciences, 2022).

Tests used:
Type in all cases: cell-based
HO15.19 cells = test: Cell viability counter-screen (CellTiter-Glo), Myc-negative HO15.19; conditions: Rattus norvegicus, HO15.19, 10 µM; Myc-negative specificity control
Method: (§1) The 54 compounds were tested at 10 µM for their inhibition of the IMR32 human neuroblastoma cell line, in which the MYCN gene is amplified and actively expressed (Table 3). HO15.19 cell line (Myc-negative) was used in parallel as a compound specificity control.
(§2) Viability of N-Myc positive (IMR32and NCI-H660) and negative (HO15.19) cells were determined using the CellTiter-Glo Luminescent Cell Viability Assay (Promega cat. G7570) (Madison, WI, USA). Cells were seeded into a 96-well white plate with a clear bottom: 10,000 cells per well for the IMR32 cells cultured in EMEM supplemented with 10% FBS, 2000 HO15.19 cells per well in Eagle’s minimum essential medium (EMEM) supplemented with 10% FBS, and 2000 cells per well for the NCI-H660 neuroendocrine cells cultured in RPMI supplemented 5% FBS, 1% Insulin-Transferrin-Selenium (Thermo Fisher, 41400-045), 10nM b-estradiol (Sigma, E8875), 10nM hydrocortisone (Sigma H0888) and 1% matrigel. Following 24 h incubation, the cells were treated with serial dilutions of the derivatives along with the respective parental compound starting at 25 μM for 72 h. Cell Titer Glo was added to each well at a ratio of 1:1 and incubated on a shaker at RT for 2 min. Luminescence and IC50 was measured with the TECAN InfiniteM200 plate reader (Männedorf, Switzerland).

IMR32 cells = test: Cell viability (CellTiter-Glo), IMR32; conditions: Homo sapiens, IMR-32
Method: as §1, §2

[1] = system: N-Myc-Max transcription activity (LNCaP-NMYC cells); test: Myc transcription assay (Cignal Myc reporter, luciferase) in LNCaP-NMYC cells; set-up: 10 uM corrected / 5uM corrected: unit not given here; conditions: for transcription inhibition activity (in words) / inhibition at 5 µM / inhibition at 10 µM / transcription inhibition activity at 5 µM (in words): LNCaP-NMYC; for transcription inhibition activity (in words): screened at 10 µM and 5 µM; for inhibition at 5 µM / inhibition at 10 µM: 24 h; for inhibition at 5 µM: read-out: % Transcript Inhibition (5 µM); for inhibition at 10 µM: read-out: % Transcript Inhibition (10 µM); for IC50: Homo sapiens, LNCaP, Table 2, transcriptional assay in LNCaP cells overexpressing N-Myc, read-out: IC50; for 5uM corrected / 10 uM corrected: sheet 181_set
Method: To determine the optimal substitutions on the free phenyl ring, we used the active scaffold for a second substructure search against the ZINC15 database to identify a set of 181 analogues for further validation (VPC-70617 to -70799, presented in Supplementary Table S1). Compounds were tested for their inhibition of a N-Myc-Max luciferase transcription activity assay at 5 and 10 µM Figure 2a. Herein, we inspected all the proposed substitutions on the scaffold to discern the features required to construct a possible SAR model for inhibitors targeting N-Myc-Max/DBD complex (Figure 2b).
LNCaP-NMYC cells were transfected using TransIT-2020 transfection reagents per the manufacturer’s protocol. Cells were plated at a density of 10,000 cells per well of a 96-well plate. Following 24 h treatment with 5 µM or 10 µM of the compounds, the Myc reporter activity was measured using the Cignal Myc Reporter Assay Kit from Qiagen (#336841) (Hilden, Germany) per the manufacturer’s instructions.

In the case of N#Cc1ccc(NNC(=O)c2cc(F)c(Cl)c(F)c2)c(C(F)(F)F)c1 [compound 70767], the inhibition at 10 µM (HO15.19 cells) is reported as 40.3%, the inhibition at 10 µM (IMR32 cells) is reported as 31.6% and the “transcription inhibition activity (in words)” value [1] is reported as “strong increase in inhibition activity”.

For N#Cc1ccc(NNC(=O)c2cc(F)cc(Cl)c2)c(C(F)(F)F)c1 [compound 70644], the inhibition at 10 µM (HO15.19 cells) was 69.5%, the inhibition at 10 µM (IMR32 cells) was 88.3% and the “transcription inhibition activity (in words)” value [1] was “better inhibition activity”.

In the case of N#Cc1ccc(NNC(=O)c2cc(Cl)ccc2O)c(C(F)(F)F)c1 [compound 70640], the inhibition at 10 µM (HO15.19 cells) is reported as 76.7%, the inhibition at 10 µM (IMR32 cells) is reported as 93.5% and the “transcription inhibition activity (in words)” value [1] is reported as “better inhibition activity”.

With CC(C)c1ccc(C(=O)NNc2ccc(C#N)cc2C(F)(F)F)cc1 [compound 70595] the inhibition at 5 µM [1] was 30%, the inhibition at 10 µM [1] was 70% and the IC50 [1] was 12 µM.

With N#Cc1ccc(NNC(=O)c2ccc(C(F)(F)F)cc2)c(C(F)(F)F)c1 [compound 70597] the inhibition at 5 µM [1] was 26%, the inhibition at 10 µM [1] was 82% and the IC50 [1] was 12 µM.

Work on Cc1ccc(C(=O)NNc2ccc(C#N)cc2C(F)(F)F)cc1 [compound 70600] yielded an inhibition at 5 µM [1] of -22% and an inhibition at 10 µM [1] of 10%.

Compound N#Cc1ccc(NNC(=O)c2ccc(Br)cc2)c(C(F)(F)F)c1 [compound 70602] has an inhibition at 5 µM [1] of 12% and an inhibition at 10 µM [1] of 48%.

In the case of N#Cc1ccc(C(=O)NNc2ccc(C#N)cc2C(F)(F)F)cc1 [compound 70593], the inhibition at 5 µM [1] is reported as -26%, the inhibition at 10 µM [1] is reported as 70% and the IC50 [1] is reported as 12 µM. For the same compound, the “transcription inhibition activity (in words)” value [1] was “significantly more active”.

N#Cc1ccc(NNC(=O)c2cc(F)c(F)cc2F)c(C(F)(F)F)c1 [compound 70772] was tested, and the 5uM corrected [1] was 22, the “10 uM corrected” value [1] was 94 and the “transcription inhibition activity (in words)” value [1] was “nullified activity”.

CC(F)(F)c1ccc(C(=O)NNc2ccc(C#N)cc2C(F)(F)F)cc1 [compound 70608] was tested, and the inhibition at 5 µM [1] was -14% and the inhibition at 10 µM [1] was 38%.

With N#Cc1ccc(NNC(=O)c2ccccc2F)c(C(F)(F)F)c1 [compound 70709] the 5uM corrected [1] was 0, the “10 uM corrected” value [1] was -10 and the “transcription inhibition activity (in words)” value [1] was “declined considerably or was lost completely”.

C=Cc1ccc(C(=O)NNc2ccc(C#N)cc2C(F)(F)F)cc1 [compound 70590] gave an inhibition at 5 µM [1] of 38%, an inhibition at 10 µM [1] of 62% and an IC50 [1] of 15 µM.

For N#Cc1ccc(NNC(=O)c2ccccc2I)c(C(F)(F)F)c1 [compound 70702], the 5uM corrected [1] was -10, the “10 uM corrected” value [1] was 10 and the “transcription inhibition activity (in words)” value [1] was “declined considerably or was lost completely”.

N#Cc1ccc(NNC(=O)c2ccc(C#N)c(O)c2)c(C(F)(F)F)c1 [compound 70673] was tested, and the 5uM corrected [1] was -56 and the “10 uM corrected” value [1] was -38.

Compound O=C(NNc1ccccc1C(F)(F)F)c1ccc(F)cc1 [compound 70609] has an inhibition at 5 µM [1] of 20% and an inhibition at 10 µM [1] of 12%.

In the case of N#Cc1ccc(NNC(=O)c2ccc(C(N)=O)cc2)c(C(F)(F)F)c1 [compound 70601], the inhibition at 5 µM [1] is reported as 16% and the inhibition at 10 µM [1] is reported as -12%.

With O=C(NNc1ccccc1F)c1ccc(C(F)(F)F)cc1 [compound 70585] the inhibition at 5 µM [1] was 16%, the inhibition at 10 µM [1] was 24% and the IC50 [1] was greater than 20 µM.

With Cc1ccc(C(=O)NNc2ccc(C#N)cc2C(F)(F)F)cc1F [compound 70765] the 5uM corrected [1] was 30, the “10 uM corrected” value [1] was 54 and the “transcription inhibition activity (in words)” value [1] was “lower transcription inhibition or no activity at all”.

In the case of N#Cc1ccc(NNC(=O)c2ccc(OC(F)F)cc2)c(C(F)(F)F)c1 [compound 70588], the inhibition at 5 µM [1] is reported as 32% and the inhibition at 10 µM [1] is reported as 46%.

For N#Cc1ccc(NNC(=O)c2ccc(Cl)cc2Cl)c(C(F)(F)F)c1 [compound 70624], the 5uM corrected [1] was 8, the “10 uM corrected” value [1] was 78 and the “transcription inhibition activity (in words)” value [1] was “abolished inhibitory activity”.

With N#Cc1ccc(NNC(=O)c2cccc(Br)c2)c(C(F)(F)F)c1 [compound 70754] the 5uM corrected [1] was 94, the “10 uM corrected” value [1] was 60 and the “transcription inhibition activity (in words)” value [1] was “better inhibition activity”.

In the case of CC(C)(C#N)c1ccc(C(=O)NNc2ccc(C#N)cc2C(F)(F)F)cc1 [compound 70594], the inhibition at 5 µM [1] is reported as 22% and the inhibition at 10 µM [1] is reported as 10%.

For Cc1cc(C)cc(C(=O)NNc2ccc(C#N)cc2C(F)(F)F)c1 [compound 70651], the 5uM corrected [1] was -32, the “10 uM corrected” value [1] was 0 and the “transcription inhibition activity (in words)” value [1] was “no activity”.

With N#Cc1ccc(NNC(=O)c2ccc(SC(F)F)cc2)c(C(F)(F)F)c1 [compound 70682] the inhibition at 10 µM (HO15.19 cells) was 22.9% and the inhibition at 10 µM (IMR32 cells) was 11%.

Work on N#Cc1ccc(C(=O)NNc2ccc(C(F)(F)F)cc2)cc1 [compound 70584] yielded an inhibition at 5 µM [1] of 34%, an inhibition at 10 µM [1] of 30% and an IC50 [1] greater than 20 µM.

Cc1ccc(C(=O)NNc2ccc(C#N)cc2C(F)(F)F)cc1Cl [compound 70628] was tested, and the 5uM corrected [1] was 8, the “10 uM corrected” value [1] was 90 and the “transcription inhibition activity (in words)” value [1] was “lower transcription inhibition or no activity at all”.

In the case of CC(F)(F)c1ccc(C(=O)NNc2ccccc2C(F)(F)F)cc1 [compound 70606], the inhibition at 5 µM [1] is reported as 0% and the inhibition at 10 µM [1] is reported as -10%.

With N#Cc1ccc(NNC(=O)c2ccccc2)c(C(F)(F)F)c1 [compound 70603] the inhibition at 5 µM [1] was -30%, the inhibition at 10 µM [1] was -12% and the IC50 [1] was greater than 20 µM.

For O=C(NNc1ccccc1C(F)(F)F)c1ccc(C(F)(F)F)cc1 [compound 70611], the inhibition at 5 µM [1] was -28%, the inhibition at 10 µM [1] was 4% and the IC50 [1] was greater than 20 µM. For the same compound, the “transcription inhibition activity (in words)” value [1] was “significantly reduced inhibition activity”.

Compound N#Cc1ccc(NNC(=O)c2ccc(C(F)(F)F)cc2)cc1 [compound 70586] has an inhibition at 5 µM [1] of 28%, an inhibition at 10 µM [1] of 34% and an IC50 [1] greater than 20 µM. For the same compound, the “transcription inhibition activity (in words)” value [1] was “significantly reduced inhibition activity”.

In the case of N#Cc1ccc(NNC(=O)c2ccccc2Cl)c(C(F)(F)F)c1 [compound 70701], the 5uM corrected [1] is reported as -28, the “10 uM corrected” value [1] is reported as 6 and the “transcription inhibition activity (in words)” value [1] is reported as “declined considerably or was lost completely”.

N#Cc1ccc(NNC(=O)c2ccc(I)cc2)c(C(F)(F)F)c1 [compound 70589] gave an inhibition at 5 µM [1] of 64%, an inhibition at 10 µM [1] of 94% and an IC50 [1] of 3 µM.

CC(F)(F)c1ccc(C(=O)NNc2ccc(C#N)cc2)cc1 [compound 70607] was tested, and the inhibition at 5 µM [1] was -20% and the inhibition at 10 µM [1] was -8%.

N#Cc1ccc(NNC(=O)c2ccc(F)cc2)c(C(F)(F)F)c1 [compound 70591] gave an inhibition at 5 µM [1] of 18%, an inhibition at 10 µM [1] of 64% and an IC50 [1] of 25 µM.

In the case of N#Cc1cccc(C(=O)NNc2ccc(C#N)cc2C(F)(F)F)c1 [compound 70672], the inhibition at 10 µM (HO15.19 cells) is reported as 8.1% and the inhibition at 10 µM (IMR32 cells) is reported as 18%.

Compound N#Cc1ccc(NNC(=O)c2ccc(C#N)cc2)cc1 [compound 70587] has an inhibition at 5 µM [1] of -58% and an inhibition at 10 µM [1] of 14%.

CN(C)c1ccc(C(=O)NNc2ccc(C#N)cc2C(F)(F)F)cc1 [compound 70605] was tested, and the inhibition at 5 µM [1] was -74% and the inhibition at 10 µM [1] was 26%.

Work on C#Cc1ccc(C(=O)NNc2ccc(C#N)cc2C(F)(F)F)cc1 [compound 70582] yielded an inhibition at 5 µM [1] of 44%, an inhibition at 10 µM [1] of 84% and an IC50 [1] of 8 µM.

Cc1cc(C(=O)NNc2ccc(C#N)cc2C(F)(F)F)ccc1Cl [compound 70617] was tested, and the 5uM corrected [1] was 4, the “10 uM corrected” value [1] was 96 and the “transcription inhibition activity at 5 µM (in words)” value [1] was “did not impart any inhibitory activity”.

Work on N#Cc1ccc(NNC(=O)c2ccc(Cl)cc2)c(C(F)(F)F)c1 [compound 70599] yielded an inhibition at 5 µM [1] of 96%, an inhibition at 10 µM [1] of 78% and an IC50 [1] of 3 µM. For the same compound, the “transcription inhibition activity (in words)” value [1] was “significantly more active”.

CS(=O)(=O)c1cc(C(=O)NNc2ccc(C#N)cc2C(F)(F)F)ccc1Cl [compound 70721] was tested, and the 5uM corrected [1] was -42, the “10 uM corrected” value [1] was 2 and the “transcription inhibition activity at 5 µM (in words)” value [1] was “did not impart any inhibitory activity”.

N#Cc1ccc(NNC(=O)c2cccc(C(F)(F)F)c2)c(C(F)(F)F)c1 [compound 70596] was tested, and the inhibition at 5 µM [1] was 96%, the inhibition at 10 µM [1] was 94% and the IC50 [1] was 2 µM. The “transcription inhibition activity (in words)” value [1] was “significantly more active”.

Compound O=C(NNc1ccc(C(F)(F)F)cc1)c1ccc(C(F)(F)F)cc1 [compound 70583] has an inhibition at 5 µM [1] of 8%, an inhibition at 10 µM [1] of 28% and an IC50 [1] greater than 20 µM.
